This note sets out measurements from patent US20240294531A1, “COVALENT HETEROCYCLES AND USES THEREOF” (Kumquat Biosciences Inc., priority 2022, published 2024).

SMILES strings stand for the structures.

One test has as its target BTK C481S protein (Homo sapiens (Human), UniProt Q06187, C481S). Description: BTK C481S HTRF displacement assay. The note with it: 1-hour incubation. It counts as binding. In short, it runs like this:
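Tracer displacement read by HTRF after 1 hour at room temperature: GST-BTK C481S 2-659, 50 nM tracer 239 (Kd 54 nM), anti-GST antibody, compound in six four-fold doses from 5 μM. Percent inhibition versus DMSO fitted (bottom 0, top 100) for IC50, converted to KI via Cheng-Prusoff.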

Another test addresses BTK wildtype protein (Homo sapiens (Human), UniProt Q06187). Description: BTK wildtype HTRF displacement assay. The test is classed as binding. The note with it: 1-hour incubation; read-out: BTK (wt) IC50. In short, it runs like this:
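Tracer-displacement HTRF format: compound and tracer 239 compete at the BTK active site, detected via anti-GST-Tb on GST-tagged full-length enzyme. One-hour room-temperature incubation; compounds dosed at six four-fold steps down from 5 μM. Percent inhibition versus DMSO gives IC50 by constrained four-parameter logistic fit.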

BTK wildtype protein, sequence (Q06187 2-659): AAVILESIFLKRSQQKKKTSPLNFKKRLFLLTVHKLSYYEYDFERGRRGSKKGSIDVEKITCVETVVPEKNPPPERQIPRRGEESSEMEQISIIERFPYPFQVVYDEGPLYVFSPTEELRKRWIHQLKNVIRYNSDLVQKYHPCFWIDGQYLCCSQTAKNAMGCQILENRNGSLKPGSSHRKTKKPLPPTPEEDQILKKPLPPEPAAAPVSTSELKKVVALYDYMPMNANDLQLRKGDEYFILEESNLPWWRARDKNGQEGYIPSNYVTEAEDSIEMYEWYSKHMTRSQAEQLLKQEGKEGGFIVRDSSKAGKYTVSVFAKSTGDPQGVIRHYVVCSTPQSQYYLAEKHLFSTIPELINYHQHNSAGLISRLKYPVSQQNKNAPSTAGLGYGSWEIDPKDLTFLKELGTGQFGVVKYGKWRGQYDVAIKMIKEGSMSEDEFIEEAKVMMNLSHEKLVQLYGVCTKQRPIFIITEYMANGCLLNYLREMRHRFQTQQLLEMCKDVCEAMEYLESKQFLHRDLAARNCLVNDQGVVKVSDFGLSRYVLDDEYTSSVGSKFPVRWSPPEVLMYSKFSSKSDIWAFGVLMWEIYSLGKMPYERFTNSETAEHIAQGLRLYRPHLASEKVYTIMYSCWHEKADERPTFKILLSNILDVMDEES
BTK C481S protein, sequence (Q06187 2-659 C481S): as the sequence (Q06187 2-659) above, with C480S counted along it

As for `COc1ccc(F)cc1C(=O)NCc1ccc(-c2nn(C[C@H]3CCCN3C(=O)n3cncn3)c3ncnc(N)c23)cc1` [Compound 292, (R)-N-(4-(1-((1-(1H-1,2,4-triazole-1-carbonyl)pyrrolidin-2-yl)methyl)-4-amino-1H-pyrazolo[3,4-d]pyrimidin-3-yl)benzyl)-5-fluoro-2-methoxybenzamide], the 50% inhibitory concentration (IC50) at BTK C481S protein and at BTK wildtype protein was at most 1000 nM in each case.
Consider `COC[C@H](C1CCNc2c(C(N)=O)c(-c3ccc(Oc4ccccc4)cc3)nn21)N(C)C(=O)n1cncn1` (stereo partly drawn) [Compound 156, 7-((S)-2-methoxy-1-(N-methyl-1H-1,2,4-triazole-1-carboxamido)ethyl)-2-(4-phenoxyphenyl)-4,5,6,7-tetrahydropyrazolo[1,5-a] pyrimidine-3-carboxamide], for which the half-inhibitory concentration (IC50) on BTK C481S protein and on BTK wildtype protein was above 1000 nM each time.
In the case of `NC(=O)c1c(-c2ccc(Oc3ccccc3)cc2)nn2c1NCCC2[C@@H]1CCCN1C(=O)n1cncn1` (stereo partly drawn) [Compound 280, 7-((S)-1-(1H-1,2,4-triazole-1-carbonyl)pyrrolidin-2-yl)-2-(4-phenoxyphenyl)-4,5,6,7-tetrahydropyrazolo[1,5-a] pyrimidine-3-carboxamide], the IC50 at BTK C481S protein was at most 1000 nM; on BTK wildtype protein, above 1000 nM.
`CN(C(=O)n1cncn1)C1CCC(C2CCNc3c(C(N)=O)c(-c4ccc(Oc5ccccc5)cc4)nn32)C1` (stereo not shown) [Compound 183, 7-(3-(N-methyl-1H-1,2,4-triazole-1-carboxamido)cyclopentyl)-2-(4-phenoxyphenyl)-4,5,6,7-tetrahydropyrazolo[1,5-a] pyrimidine-3-carboxamide]: the IC50 at BTK C481S protein and at BTK wildtype protein was at most 1000 nM throughout.
Regarding `COc1ccc(F)cc1C(=O)NCc1ccc(-c2nn(CC3CN(C)CCN3C(=O)n3cncn3)c3ncnc(N)c23)cc1` (stereo not shown) [Compound 178, N-(4-(4-amino-1-((4-methyl-1-(1H-1,2,4-triazole-1-carbonyl)piperazin-2-yl)methyl)-1H-pyrazolo[3,4-d]pyrimidin-3-yl)benzyl)-5-fluoro-2-methoxybenzamide], the concentration for half-maximal inhibition (IC50) at BTK C481S protein and at BTK wildtype protein was above 1000 nM throughout.
Turning to `COCCC(CN(C)C(=O)n1cncn1)n1nc(-c2ccc(CNC(=O)c3cc(F)ccc3OC)cc2)c2c(N)ncnc21` (stereo not shown) [Compound 291, N-(2-(4-amino-3-(4-((5-fluoro-2-methoxybenzamido)methyl)phenyl)-1H-pyrazolo[3,4-d]pyrimidin-1-yl)-4-methoxybutyl)-N-methyl-1H-1,2,4-triazole-1-carboxamide], the IC50 on BTK C481S protein and on BTK wildtype protein was above 1000 nM throughout.
On to `COc1ccc(F)cc1C(=O)NCc1ccc(-c2nn(C[C@H]3CCCC[C@H]3CN(C)C(=O)n3cncn3)c3ncnc(N)c23)cc1` [Compound 173, N-(((1R,2S)-2-((4-amino-3-(4-((5-fluoro-2-methoxybenzamido)methyl)phenyl)-1H-pyrazolo[3,4-d]pyrimidin-1-yl)methyl)cyclohexyl)methyl)-N-methyl-1H-1,2,4-triazole-1-carboxamide], for which the 50% inhibitory concentration (IC50) at BTK C481S protein and at BTK wildtype protein was at most 1000 nM each time.
With `COc1ccc(F)cc1C(=O)NCc1ccc(-c2nn(C[C@H](C)N(C)C(=O)n3cncn3)c3ncnc(N)c23)cc1` [Compound 315, (S)-N-(1-(4-amino-3-(4-((5-fluoro-2-methoxybenzamido)methyl)phenyl)-1H-pyrazolo[3,4-d]pyrimidin-1-yl)propan-2-yl)-N-methyl-1H-1,2,4-triazole-1-carboxamide], the IC50 at BTK C481S protein and on BTK wildtype protein was above 1000 nM in each case.
As to `CN(CC1CNc2c(C(N)=O)c(-c3ccc(Oc4ccccc4)cc3)nn2C1)C(=O)n1cncn1` (stereo not shown) [Compound 149, 6-((N-methyl-1H-1,2,4-triazole-1-carboxamido)methyl)-2-(4-phenoxyphenyl)-4,5,6,7-tetrahydropyrazolo[1,5-a] pyrimidine-3-carboxamide], the IC50 at BTK C481S protein and at BTK wildtype protein was above 1000 nM each time.
On to `CCC(CN(C)C(=O)n1cncn1)n1nc(-c2ccc(CNC(=O)c3cc(F)ccc3OC)cc2)c2c(N)ncnc21` (stereo not shown) [Compound 176, N-(2-(4-amino-3-(4-((5-fluoro-2-methoxybenzamido)methyl)phenyl)-1H-pyrazolo[3,4-d]pyrimidin-1-yl)butyl)-N-methyl-1H-1,2,4-triazole-1-carboxamide], for which the half-maximal inhibitory concentration (IC50) on BTK C481S protein and on BTK wildtype protein was above 1000 nM each time.
Consider `COc1ccc(F)cc1C(=O)NCc1ccc(-c2nn(C[C@@H]3CCCCN3C(=O)n3cncn3)c3[nH]c(=O)[nH]c(=O)c23)cc1` [Compound 164], for which the half-maximal inhibitory concentration (IC50) on BTK C481S protein and at BTK wildtype protein was at most 1000 nM throughout.
In the case of `CC(C1CCNc2c(C(N)=O)c(-c3ccc(Oc4ccccc4)cc3)nn21)N(C)C(=O)n1cncn1` (stereo not shown) [Compound 205, 7-(1-(N-methyl-1H-1,2,4-triazole-1-carboxamido)ethyl)-2-(4-phenoxy-phenyl)-4,5,6,7-tetrahydro-pyrazolo[1,5-a]pyrimidine-3-carboxamide], the concentration for half-maximal inhibition (IC50) on BTK C481S protein and on BTK wildtype protein was at most 1000 nM each time.
Regarding `CN(C(=O)n1cncn1)C1CCC2C(CNc3c(C(N)=O)c(-c4ccc(Oc5ccccc5)cc4)nn32)C1` (stereo not shown) [Compound 199, 7-(N-methyl-1H-1,2,4-triazole-1-carboxamido)-2-(4-phenoxyphenyl)-4,5,5a,6,7,8,9,9a-octahydro-pyrazolo[1,5-a]quinazoline-3-carboxamide], the IC50 at BTK C481S protein and at BTK wildtype protein was at most 1000 nM throughout.
`COc1ccc(C)cc1C(=O)NCc1ccc(-c2nn(C3CCC(N(C)C(=O)n4cncn4)C3)c3ncnc(N)c23)cc1` (stereo not shown) [Compound 275, N-(3-(4-amino-3-(4-((2-methoxy-5-methylbenzamido)methyl)phenyl)-1H-pyrazolo[3,4-d]pyrimidin-1-yl)cyclopentyl)-N-methyl-1H-1,2,4-triazole-1-carboxamide]: the 50% inhibitory concentration (IC50) on BTK C481S protein and on BTK wildtype protein was at most 1000 nM each time.
`CCN(C(=O)n1cncn1)C1CCCC(n2nc(-c3ccc(Oc4ccccc4)cc3)c3c(N)ncnc32)C1` (stereo not shown) [Compound 109, N-(3-(4-amino-3-(4-phenoxyphenyl)-1H-pyrazolo[3,4-d]pyrimidin-1-yl)cyclohexyl)-N-ethyl-1H-1,2,4-triazole-1-carboxamide]: the 50% inhibitory concentration (IC50) on BTK C481S protein and on BTK wildtype protein was at most 1000 nM each time.
As for `COc1ccc(F)cc1C(=O)NCc1ccc(-c2nn(C(CC3CCCC3)CN(C)C(=O)n3cncn3)c3ncnc(N)c23)cc1` (stereo not shown) [Compound 206, N-(2-(4-amino-3-(4-((5-fluoro-2-methoxybenzamido)methyl)phenyl)-1H-pyrazolo[3,4-d]pyrimidin-1-yl)-3-cyclopentylpropyl)-N-methyl-1H-1,2,4-triazole-1-carboxamide], the concentration for half-maximal inhibition (IC50) on BTK C481S protein and at BTK wildtype protein was above 1000 nM in each case.
Consider `NC(=O)c1c(-c2ccc(Oc3ccccc3)cc2)nn2c1NCCC2CN(C(=O)n1cncn1)C1CC1` (stereo not shown) [Compound 240, 7-((N-cyclopropyl-1H-1,2,4-triazole-1-carboxamido)methyl)-2-(4-phenoxyphenyl)-4,5,6,7-tetrahydro-pyrazolo[1,5-a]pyrimidine-3-carboxamide], for which the concentration for half-maximal inhibition (IC50) on BTK C481S protein and on BTK wildtype protein was above 1000 nM in each case.
As for `COc1ccc(F)cc1C(=O)NCc1ccc(-c2nn(-c3cc(N(C)C(=O)n4cncn4)ccc3C)c3ncnc(N)c23)cc1` [Compound 276, N-(3-(4-amino-3-(4-((5-fluoro-2-methoxybenzamido)methyl)phenyl)-1H-pyrazolo[3,4-d]pyrimidin-1-yl)-4-methylphenyl)-N-methyl-1H-1,2,4-triazole-1-carboxamide], the half-maximal inhibitory concentration (IC50) at BTK C481S protein is above 1000 nM; at BTK wildtype protein it was at most 1000 nM.
For `COc1nn(C)cc1Nc1nc(N2CCC3(CCN3C(=O)n3cncn3)C2)nc2c1ncn2C` (stereo not shown) [Compound 107, (6-(6-((3-methoxy-1-methyl-1H-pyrazol-4-yl)amino)-9-methyl-9H-purin-2-yl)-1,6-diazaspiro[3.4]octan-1-yl)(1H-1,2,4-triazol-1-yl)methanone], in that order: above 1000 nM and above 1000 nM.
For `COc1ccc(F)cc1C(=O)NCc1ccc(-c2nn(CC3CCCCC3N(C)C(=O)n3cncn3)c3ncnc(N)c23)cc1` (stereo not shown) [Compound 126, N-(2-((4-amino-3-(4-((5-fluoro-2-methoxybenzamido)methyl)phenyl)-1H-pyrazolo[3,4-d]pyrimidin-1-yl)methyl)cyclohexyl)-N-methyl-1H-1,2,4-triazole-1-carboxamide], the IC50 at BTK C481S protein and on BTK wildtype protein was at most 1000 nM each time.
Turning to `COc1ccc(C)cc1C(=O)NCc1ccc(-c2nn(C3CCC(N(C)C(=O)n4cnnn4)C3)c3ncnc(N)c23)cc1` (stereo not shown) [Compound 273, N-(3-(4-amino-3-(4-((2-methoxy-5-methylbenzamido)methyl)phenyl)-1H-pyrazolo[3,4-d]pyrimidin-1-yl)cyclopentyl)-N-methyl-1H-tetrazole-1-carboxamide], the half-inhibitory concentration (IC50) at BTK C481S protein and on BTK wildtype protein was at most 1000 nM in each case.
Take `COc1ccc(F)cc1C(=O)NCc1ccc(-c2nn(C(CN(C)C(=O)n3cncn3)c3ccccc3)c3ncnc(N)c23)cc1` (stereo not shown) [Compound 243, N-(2-(4-amino-3-(4-((5-fluoro-2-methoxybenzamido)methyl)phenyl)-1H-pyrazolo[3,4-d]pyrimidin-1-yl)-2-phenylethyl)-N-methl-1H-1,2,4-triazole-1-carboxamide]: the IC50 at BTK C481S protein and on BTK wildtype protein was above 1000 nM each time.
`NC(=O)c1cn(C[C@@H]2CCCCN2C(=O)n2cncn2)nc1-c1ccc(Oc2ccccc2)cc1` [Compound 175, (S)-1-((1-(1H-1,2,4-triazole-1-carbonyl)piperidin-2-yl)methyl)-3-(4-phenoxyphenyl)-1H-pyrazole-4-carboxamide]: the IC50 on BTK C481S protein and on BTK wildtype protein was above 1000 nM in each case.
